Counter-ions that a name gives are not always drawn. Like-named read-outs stand apart in the source and are kept apart here. Non-standard residues stand in square brackets, D forms with d. Residues, ends and D or L forms follow the SMILES beside them.
Assays:
[1] = tested on: S. aureus (MRSA) ATCC 33591; type: cell-based, Staphylococcus aureus; conditions: Table 9
Experimental: (§1) The antimicrobial activity of the peptides was determined using a broth dilution assay essentially as descried in the guidelines of the National Committee for […] (NCCLS) [National Committee for Clinical Laboratory Standards. Methods for dilution antimicrobial susceptibility tests for bacteria that grow aerobically. Fourth edition. Approved Standard (1997). Document M7-A4. […] The microdilution method has the advantages of requiring less amount of peptide for each assay and the possibility of multiple simultaneous inoculations and was used in most studies. Several of the strains of bacteria tested are further described in Table 3.
(§2) Preparation of peptide solutions. Stock peptide solutions were prepared in 5% DMSO in aq. sucrose (9%). Determination of peptide concentrations was done by quantitative HPLC analysis using known concentrations of internal standards and/or by measuring UV absorption of tryptophane-containing peptide solutions in H2O (λ=280 εTrp: 5690). Serial 2-fold dilutions were made in the above DMSO/aq. sucrose (9%) mixture with concentrations ranging approximately 400-2 μg/ml and aliquots were dispensed in test tubes (100 μl) for the macrodilution test or in microtiter plates (20 μl) for the microdilution assays.
(§3) Inoculum preparation. Overnight cultures of different microorganisms grown in suitable media were diluted 4000 times to an approximate inoculum size of 2.5×10^5 cfu/ml.
(§4) Macrodilution method. Macrodilution methods were performed using procedures similar to those described in the National Committee for Clinical Laboratory Standards. Methods for dilution antimicrobial susceptibility tests for bacteria that grow aerobically. Fourth edition. Approved Standard (1997). Document M7-A4. (NCCLS,Villanova, Pa., 1997). Two ml aliquots of the above inoculum were dispensed to test tubes containing different peptide solutions.
(§5) Microdilution method. Microdilution methods were performed using procedures similar to those described in the National Committee for Clinical Laboratory Standards. Methods for dilution antimicrobial susceptibility tests for bacteria that grow aerobically. Fourth edition. Approved Standard (1997). Document M7-A4.

murine red blood cells = assay: Red blood cell hemolysis; type: cell-based, mouse; design: RBC Hemolysis (HD50): unit not given here
Experimental: Selectivity of cyclic peptides for bacterial over mammalian cells was evaluated by measuring red blood cell hemolytic activities as described in Tosteson, M. T. Holmes, S. J., Razin, M. and Tosteson, D. C. Melittin Lysis of Red Cells, J. Membrane Biol. 87, 35-44(1985). Heparinized murine blood was centrifuged at 1000×g for 10 minutes. The supernatant and the buffy coat were removed. Erythrocytes were washed three times with 0.9% saline solution and then resuspended to a concentration of 5% in saline containing 10% FBS (v/v). Red blood cells were then treated with serial dilutions of test peptides in a 96 well plate at 37° C. for 30 minutes. Control samples included a saline solution arid 1% Triton X-100 as 0 and 100% hemolysis, respectively. In some cases, mellitin was used as a further control. Mellitin is a linear peptide that is hemolytic against mammalian red blood cells in vitro at a concentration of about 10 μg/ml. Plates were centrifuged at 1000 g for 10 minutes. Aliquots of the supernatant were diluted 2 times with saline solution and the absorbance was measured at 560 nm.

[2] = tested on: vancomycin-resistant Enterococus faecalis (VRE)(ATCC 51575); type: cell-based, Enterococcus faecalis; design: key to VRE (in vitro activity): peptide concentration in μg/ml (broth dilution assay); conditions: Table 9
Experimental: as §1, §2, §3, §4, §5

[3] = media b: cation adjusted Meuller Hinton broth (MHBII)
[4] = media c: Brain Heart Infusion (BHI)
[5] = media a: anti-microbial media-3 (AM-3)

CC(C)C[C@H]1NC(=O)[C@H](CCCCN)NC(=O)[C@@H](Cc2c[nH]cn2)NC(=O)[C@H](CCCCN)NC(=O)[C@@H](CC(C)C)NC(=O)[C@H](Cc2c[nH]c3ccccc23)NC(=O)[C@@H](CC(C)C)NC(=O)[C@H](Cc2c[nH]c3ccccc23)NC1=O [SEQ ID NO:50, [KHKLWLWL]] (cyclo(K[dH]K[dL]W[dL]W[dL]))
MRSA (in vitro activity) [1, 3]: 9 | RBC Hemolysis (HD50) (murine red blood cells): 150 | VRE (in vitro activity) [2, 4]: 18

CC(C)C[C@@H]1NC(=O)[C@@H](Cc2c[nH]c3ccccc23)NC(=O)[C@H](CCCCN)NC(=O)[C@@H](Cc2c[nH]cn2)NC(=O)[C@H](CCCCN)NC(=O)[C@@H](Cc2c[nH]c3ccccc23)NC1=O [SEQ ID NO:119, [KHKWLW]] (cyclo(K[dH]K[dW]L[dW]))
MRSA (in vitro activity) [1, 5]: 12 | RBC Hemolysis (HD50) (murine red blood cells): >115 | VRE (in vitro activity) ([2]; media a: AM-3): 60

CC(C)C[C@@H]1NC(=O)[C@@H](Cc2c[nH]c3ccccc23)NC(=O)[C@H](CCCCN)NC(=O)[C@@H](CO)NC(=O)[C@H](CO)NC(=O)[C@@H](CO)NC(=O)[C@H](CCCCN)NC(=O)[C@@H](Cc2c[nH]c3ccccc23)NC1=O [SEQ ID NO:93, [KSSSKWLW]] (cyclo(K[dS]S[dS]K[dW]L[dW]))
MRSA (in vitro activity) [1, 3]: 6 | RBC Hemolysis (HD50) (murine red blood cells): 175 | VRE (in vitro activity) [2, 4]: 6

[KSOLWLWL] [SEQ ID NO:63]
MRSA (in vitro activity) [1, 3]: 12 | RBC Hemolysis (HD50) (murine red blood cells; Table 9): 150 | VRE (in vitro activity) [2, 4]: 25

NCCCC[C@@H]1NC(=O)[C@@H](Cc2ccccc2)NC(=O)[C@H](Cc2c[nH]c3ccccc23)NC(=O)[C@@H](Cc2ccccc2)NC(=O)[C@H](CCCCN)NC(=O)[C@@H](CC(N)=O)NC(=O)[C@H](CCC(N)=O)NC(=O)[C@@H](CC(N)=O)NC1=O [SEQ ID NO:89, [KNQNKFWF]] (cyclo(K[dN]Q[dN]K[dF]W[dF]))
MRSA (in vitro activity) [1, 3]: 17 | RBC Hemolysis (HD50) (murine red blood cells): 280 | VRE (in vitro activity) [2, 4]: 70

CC(C)C[C@H]1NC(=O)[C@H](C)NC(=O)[C@@H](CCCCN)NC(=O)[C@H](CO)NC(=O)[C@@H](CO)NC(=O)[C@H](CCCCN)NC(=O)[C@@H](CC(C)C)NC(=O)[C@H](C)NC1=O [SEQ ID NO:78, [KSSKALAL]] (cyclo(K[dS]S[dK]A[dL]A[dL]))
MRSA (in vitro activity) [1, 3]: >240 | RBC Hemolysis (HD50) (murine red blood cells): >240 | VRE (in vitro activity) [2, 4]: >240

CC(C)C[C@@H]1NC(=O)[C@@H](Cc2c[nH]c3ccccc23)NC(=O)[C@H](CCC(N)=O)NC(=O)[C@@H](Cc2c[nH]c3ccccc23)NC(=O)[C@H](CCCCN)NC(=O)[C@@H](Cc2c[nH]c3ccccc23)NC1=O [SEQ ID NO:116, [KWQWLW]] (cyclo(K[dW]Q[dW]L[dW]))
MRSA (in vitro activity) [1, 5]: 12 | RBC Hemolysis (HD50) (murine red blood cells): >16 | VRE (in vitro activity) ([2]; media a: AM-3): 12

C[C@H]1NC(=O)[C@H](CCC(N)=O)NC(=O)[C@@H](C)NC(=O)[C@H](CCCCN)NC(=O)[C@@H](C)NC(=O)[C@H](Cc2c[nH]c3ccccc23)NC(=O)[C@@H](C)NC(=O)[C@H](CCCCN)NC1=O [SEQ ID NO:95, [KAQAKAWA]] (cyclo(K[dA]Q[dA]K[dA]W[dA]))
MRSA (in vitro activity) [1, 3]: >200 | RBC Hemolysis (HD50) (murine red blood cells): >200 | VRE (in vitro activity) [2, 4]: >200

CC[C@@H](C)[C@H]1NC(=O)[C@H](C)NC(=O)[C@@H](Cc2c[nH]c3ccccc23)NC(=O)[C@H](C(C)C)NC(=O)[C@@H](CCCNC(=N)N)NC(=O)[C@H](CCCCN)NC1=O [SEQ ID NO:113, [KRVWAI]] (cyclo(K[dR]V[dW]A[dI]))
MRSA (in vitro activity) [1, 3]: >200 | RBC Hemolysis (HD50) (murine red blood cells): >200 | VRE (in vitro activity) [2, 4]: >200

CC(C)C[C@H]1NC(=O)[C@H](Cc2c[nH]c3ccccc23)NC(=O)[C@@H](CCCNC(=N)N)NC(=O)[C@H](CCCCN)NC(=O)[C@@H](Cc2c[nH]cn2)NC(=O)[C@H](CCCCN)NC(=O)[C@@H](CC(C)C)NC(=O)[C@H](Cc2c[nH]c3ccccc23)NC1=O [SEQ ID NO:74, [KRWLWLKH]] (cyclo(K[dR]W[dL]W[dL]K[dH]))
MRSA (in vitro activity) [1, 5]: 5 | RBC Hemolysis (HD50) (murine red blood cells): >130 | VRE (in vitro activity) ([2]; media a: AM-3): 7

CC(C)C[C@@H]1NC(=O)[C@@H](Cc2c[nH]c3ccccc23)NC(=O)[C@H](CCCCN)NC(=O)[C@@H](Cc2c[nH]cn2)NC(=O)[C@H](CO)NC(=O)[C@@H](Cc2c[nH]cn2)NC(=O)[C@H](CCCCN)NC(=O)[C@@H](Cc2c[nH]c3ccccc23)NC1=O [SEQ ID NO:88, [KHSHKWLW]] (cyclo([dW]L[dW]K[dH]S[dH]K))
MRSA (in vitro activity) [1, 3]: 6 | RBC Hemolysis (HD50) (murine red blood cells): 200 | VRE (in vitro activity) [2, 4]: 6

CC(C)C[C@H]1NC(=O)[C@H](CCCCN)NC(=O)[C@@H](CO)NC(=O)[C@H](CCCCN)NC(=O)[C@@H](CC(C)C)NC(=O)[C@H](Cc2ccc(O)cc2)NC(=O)[C@@H](CC(C)C)NC(=O)[C@H](Cc2ccc(O)cc2)NC1=O [SEQ ID NO:62, [KSKLYLYL]] (cyclo(K[dS]K[dL]Y[dL]Y[dL]))
MRSA (in vitro activity) [1, 3]: 100 | RBC Hemolysis (HD50) (murine red blood cells): >200 | VRE (in vitro activity) [2, 4]: 200

CC(C)C[C@H]1NC(=O)[C@H](Cc2c[nH]c3ccccc23)NC(=O)[C@@H](CCCNC(=N)N)NC(=O)[C@H](CCCCN)NC(=O)[C@@H](CO)NC(=O)[C@H](CCCCN)NC(=O)[C@@H](CC(C)C)NC(=O)[C@H](Cc2c[nH]c3ccccc23)NC1=O [SEQ ID NO:75, [KRWLWLKS]] (cyclo(K[dR]W[dL]W[dL]K[dS]))
MRSA (in vitro activity) [1, 5]: 9 | RBC Hemolysis (HD50) (murine red blood cells): >48 | VRE (in vitro activity) ([2]; media a: AM-3): 22

CC(C)C[C@H]1NC(=O)[C@H](Cc2c[nH]c3ccccc23)NC(=O)[C@@H](CCCCN)NC(=O)[C@H](CCCCN)NC(=O)[C@@H](CO)NC(=O)[C@H](CCCCN)NC(=O)[C@@H](CC(C)C)NC(=O)[C@H](Cc2c[nH]c3ccccc23)NC1=O [SEQ ID NO:77, [KSKKWLWL]] (cyclo(K[dS]K[dK]W[dL]W[dL]))
MRSA (in vitro activity) [1, 3]: 13 | RBC Hemolysis (HD50) (murine red blood cells): >220 | VRE (in vitro activity) [2, 4]: 27

CC(C)C[C@@H]1NC(=O)[C@@H](Cc2c[nH]c3ccccc23)NC(=O)[C@H](Cc2c[nH]c3ccccc23)NC(=O)[C@@H](CCCNC(=N)N)NC(=O)[C@H](CCC(N)=O)NC(=O)[C@@H](CCCNC(=N)N)NC(=O)[C@H](Cc2c[nH]c3ccccc23)NC(=O)[C@@H](Cc2c[nH]c3ccccc23)NC1=O [SEQ ID NO:71, [QRWWLWWR]] (cyclo(Q[dR]W[dW]L[dW]W[dR]))
MRSA (in vitro activity) [1, 3]: 6.3 | RBC Hemolysis (HD50) (murine red blood cells): 35 | VRE (in vitro activity) ([2]; media b: MHBII): 6.3

CC(C)C[C@@H]1NC(=O)[C@@H](Cc2c[nH]c3ccccc23)NC(=O)[C@H](CCC(N)=O)NC(=O)[C@@H](CCC(=O)O)NC(=O)[C@H](CCCCN)NC(=O)[C@@H](Cc2c[nH]c3ccccc23)NC1=O [SEQ ID NO:118, [KEQWLW]] (cyclo(K[dE]Q[dW]L[dW]))
MRSA (in vitro activity) [1, 5]: >115 | RBC Hemolysis (HD50) (murine red blood cells): >115 | VRE (in vitro activity) ([2]; media a: AM-3): >115

CC(C)C[C@@H]1NC(=O)[C@@H](Cc2c[nH]c3ccccc23)NC(=O)[C@H](CCCCN)NC(=O)[C@@H](CCCNC(=N)N)NC(=O)[C@H](CCCCN)NC(=O)[C@@H](Cc2c[nH]c3ccccc23)NC1=O [SEQ ID NO:125, [KRKWLW]] (cyclo(K[dR]K[dW]L[dW]))
MRSA (in vitro activity) [1, 5]: 9 | RBC Hemolysis (HD50) (murine red blood cells): >174 | VRE (in vitro activity) ([2]; media a: AM-3): 33

CC(C)C[C@H]1NC(=O)[C@H](Cc2c[nH]c3ccccc23)NC(=O)[C@@H](Cc2c[nH]cn2)NC(=O)[C@H](Cc2c[nH]cn2)NC(=O)[C@@H](CO)NC(=O)[C@H](Cc2c[nH]c3ccccc23)NC(=O)[C@@H](CC(C)C)NC(=O)[C@H](Cc2c[nH]c3ccccc23)NC1=O [[SHHWLWLW-HCl] (15), SHHWLWLW] (cyclo([dS]H[dH]W[dL]W[dL]W))
MRSA (in vitro activity) [1, 3]: 6 | RBC Hemolysis (HD50) (murine red blood cells): 40 | VRE (in vitro activity) [2, 4]: 6

CC(C)C[C@H]1NC(=O)[C@H](C)NC(=O)[C@@H](CC(C)C)NC(=O)[C@H](CCCCN)NC(=O)[C@@H](CO)NC(=O)[C@H](CCCCN)NC(=O)[C@@H](CC(C)C)NC(=O)[C@H](C)NC1=O [SEQ ID NO:53, [KSKLALAL]] (cyclo(K[dS]K[dL]A[dL]A[dL]))
MRSA (in vitro activity) [1, 3]: 35 | RBC Hemolysis (HD50) (murine red blood cells): >280 | VRE (in vitro activity) [2, 4]: >280
